Data from patent publication US20120283293A1, “Methods of neuroprotection involving Prostaglandin E2 EP4 (PGE2 EP4) receptor activation” (The Board of Trustees of the Leland Stanford Junior …, priority 2011, published 2012).

Experiments:
[1] = tested on: primary microglia; test: qPCR of inflammatory gene expression in LPS-stimulated primary microglia; type: cell-based, rat; details: LPS treated primary microglia, AE1-329 100 nM, 3 h
Description: Murine microglial-like BV-2 cells were grown in DMEM medium supplemented with 10% heat-inactivated fetal bovine serum (HyClone, Logan, Utah) and 100 units/ml each of penicillin and streptomycin and were maintained at 37° C. in a humidified atmosphere containing 5% CO2. For primary microglial cultures, cerebral cortices were isolated from postnatal day 2 Sprague-Dawley rat pups obtained from Charles River Laboratories International, Inc. (Davis, Calif.). Tissues were minced and incubated in 0.25% trypsin-EDTA, mechanically triturated in DMEM/F-12 with 10% FBS, and plated on poly-L-lysine-coated […]. Cultures were maintained for 14 days with media changes every 4 days. […]
(§1) qPCR was carried out as previously described (Liang et al., 2008). […] The mRNA level for each target gene was quantified by SYBR Green-based qPCR using the QuantiTect SYBR Green PCR kit (Qiagen). […] Quantification was performed using the standard curve method. […]
Inflammatory stimuli such as LPS can activate microglia through the CD14/TLR4 receptor complex and induce the expression of pro-inflammatory enzymes and cytokines (Fassbender et al., 2004; Walter et al., 2007). […] BV-2 cells were treated with LPS (10 ng/ml) in the presence or absence of the selective EP4 agonist AE1-329 (1 μM) for 6 h, and pro-inflammatory gene expression was measured using qPCR (see FIG. 2). […]

[2] = tested on: hippocampus of LPS-treated mice; test: LPS-induced hippocampal pro-inflammatory gene response in mice (qPCR, microglial morphology); type: in vivo, mouse
Description: The murine in vivo studies were conducted in accordance with the National Institutes of Health guidelines for the use of experimental animals and protocols were approved by the Institutional Animal Care and Use Committee. C57B6 EP4 floxed mice (Schneider et al., 2004) were kindly provided by Drs. Richard and Matthew Breyer (Vanderbilt University School of Medicine, Nashville, Tenn.), and C57B6 Cd11bCre mice (Boillee et al., 2006) were kindly provided by Dr. G. Kollias (Alexander Fleming Biomedical Sciences Research Center, Vari, Greece) and Dr. Donald Cleveland (UCSD, San Diego, Calif.). All mice were housed in an environment controlled for lighting (12 hour light/dark cycle), temperature, and humidity, with food and water available ad libitum. Cd11bCre:EP4f/f and Cd11bCre:EP4+/+ mice were generated by serial crosses of C57B6 Cd11bCre and EP4f/f and EP4+/+ lines. Male Cd11bCre: EP4f/f and Cd11bCre: EP4+/+ mice were treated with either saline or LPS (5 mg/kg intraperitoneally: n=5-8 per group, 13 months of age). 24 hours after injection, mice were euthanized and brain tissue was harvested and frozen at −80° C. For pharmacological experiments, C57B6 male mice (Jackson Laboratories, Bar Harbor, Me.; n=7 or 8 per group) received an injection of saline or LPS (5 mg/kg, i.p.+/−vehicle or AE1-329 ([…]) (Qin et al., 2007; Nagamatsu et al., 2006). Mice were euthanized 6 hours later, and brain tissue was harvested and frozen at −80° C. For collection of plasma, C57B6 male mice (n=5 per group) received an injection of saline or LPS (5 mg/kg, i.p.)+/−AE1-329 ([…] s.c.) or vehicle. Mice were deeply anesthetized with isoflurane at 3 h and blood was collected in a 1-ml syringe pre-coated with EDTA (250 mM) and placed in EDTA coated tubes. […]
as §1

[3] = mice, LPS 5 mg/kg i.p., AE1-329 300 μg/kg s.c., 6 hours

With COCc1ccccc1CC[C@H](O)/C=C/[C@H]1[C@H](O)CC(=O)[C@@H]1SCCCSCC(=O)O [AE1-329] the IL-10 expression [1] was “upregulation of the anti-inflammatory IL-10”, the “pro-inflammatory gene expression (iNOS, COX-2, TNF-α, gp91phox)” value [1] was “downregulation of pro-inflammatory gene expression” and the “LPS-induced COX-2, iNOS, TNF-α, IL-6 and IL-1β mRNA levels in hippocampus” value [2, 3] was “significantly attenuated”. For the same molecule, the “hippocampal expression of NADPH oxidase subunits gp91phox, p67phox and p47phox” value [2, 3] was “trend toward decreased expression” and the “microglial morphological changes in response to LPS (Iba1 staining)” value ([2]; mouse hippocampal CA1, 6 hours after LPS + AE1-329) was “modestly decreased”.
